Assay results published in article PMC9727182, “Identification of pharmacokinetic markers for safflower injection using a combination of system pharmacology, multicomponent pharmacokinetics, and quantitative proteomics study” (Frontiers in Pharmacology, 2022).
Several values for one entry are separate records, joined by “and”; a condition that tells them apart may be missing. Equal entries are not always repeated.

What was measured:
[1] = Multicomponent pharmacokinetics in rat plasma after i.v. safflower injection (SI); details: for AUC(0-inf) / AUC(0-t) / Cmax / MRT inf / MRT last / Vd / clearance / half-life: male, Sprague-Dawley, rat, iv; for detected mean maximum plasma concentration: rats, after administration of 4 ml/kg of SI
Method: The animal experiments were approved by the Animal Care and Use Committee of the College of Animal Science (College of Bee Science), Fujian Agriculture and Forestry University (Approval Number: PZCASFAFU21012). 250 ± 20 g of male Sprague-Dawley (SD) rats were provided by Lab Animal Center in Fujian Medical University (Fuzhou, China).
Ten rats were divided into three groups (Low dose group, n = 4; medium and high groups, n = 3, respectively). […] For each rat, 2 ml of physiological saline was supplemented after 30 min sampling via intraperitoneal injection. The plasma samples were obtained by centrifugation at 3,000 rpm for 10 min and stored at −20°C until analysis.
Clear supernatant (5 μl) was injected into HPLC-MS for bioanalysis.
The sample was separated on a RD-C18 column (4.6 mm × 50 mm, 3.5 μm, Zhongpu Develop, China). The mobile phase incudes water with 0.1% acetic acid (A) and acetonitrile (B). […] The column temperature, flow rate and injection volume were set at 30°C, 0.5 ml/min and 5 μl, respectively.
Non-compartmental model was used to calculate the PK parameters by DAS 3.0 software (Chinese Pharmacologic Society, Beijing, China). A single-tailed t-test was carried out in the study.

[2] = tested on: H9c2 cardiomyocytes injured by H2O2; experiment: Protection of cardiomyocytes injured by H2O2 (MTT); format: cell-based; details: for cell viability vs. model group: pretreated 24 h, 250 μM H2O2 2 h
Method: H9c2 cardiomyocytes obtained from Cell Bank of the Chinese Academy of Sciences (Shanghai, China) were cultured in DMEM (high glucose) supplemented with 1% P/S and 15% FBS in 5% CO2 at 37°C. The cells were collected with 0.25% trypsin, followed by re-seeding in 96-well multiplates with a density of 5×10^3 cells per well. The cell experiments were grouped as follows: normal group, model group (H2O2), administration groups and positive control groups (N-Acetyl-L-cysteine, NAC). […] After that, cells were incubated with 0.5 mg/ml of MTT for 4 h under standard condition, followed by addition of 150 µl DMSO into every well. The cell supernatants were finally removed and the optical density (OD) was recorded at 570 nm using a microplate reader (Thermo Fisher Scientific, United States). The protection rate of the compounds on H9c2 cardiomyocytes was calculated as (OD valueadministration group (or NAC group)-OD valuemodel group)/(OD valuenormal group-OD valuemodel group) ×100%.

[3] = tested on: H9c2 cardiomyocytes injured by H2O2; experiment: TMT quantitative proteomics of H2O2-injured cardiomyocytes; format: cell-based; details: 168 μM
Method: The procedures for cell culture, group and administration are similar to those in “2.7. […] Briefly, the difference is that H9c2 cells were seeded and cultured in a culture flask with a bottom area of 25 cm^2 with a density 1×10^5 cells/ml. After treatment, about 3×10^7 cells per group were collected for the next quantitative proteomics investigation, which was done by Jingjie PTM Biolabs (Hangzhou, China). All the procedures for quantitative proteomics can be found in the section of “5. Quantitative proteomics” of the Supplementary Material.
The quantitative proteomics study was carried out according to our previous report ([Li et al., 2022]). Relative quantitative values of proteins in two samples were compared via t-test. […] The identified difference proteins between groups were subjected further to principal component analysis (PCA). […] The subcellular structure location was analyzed using these proteins as objectives.

[4] = Stability of 6 compounds of SI in rat plasma; details: for 10h in auto-sampler vials RE: extracted rat plasma; for 6h at room temperature RE / Freeze-thaw stability (three cycles) RE / Long-term stability (-80℃,15 days) RE: rat plasma
Excerpt: The LC-MS method was validated by linearity, limits of detection (LOD), limits of quantification (LOQ), precision, accuracy, extraction recovery, matrix effect and stability of the 6 ingredients in rat plasma. Calibration curves were plotted using weighted linear regression of the peak area ratio of analyte to the IS against the corresponding nominal concentration of the analyte. LOD and LOQ were defined as the detectable concentration at which the ratio of signal to noise was more than 3 and 10, respectively. Intra- and inter-day accuracy and precision were assessed by detecting quality control (QC) samples using five replicates of rat samples at three concentration levels on one or three validation days, respectively. Accuracy and precision were expressed by relative error (RE) and relative standard deviation (RSD), respectively. The extraction recovery and matrix effect of the 6 components at above-mentioned three concentration levels were determined. Stability was assessed under the condition of placing un-treated plasma samples at room temperature for 6 h, and extracted plasma samples in auto-sampler for 10 h, as well as placing plasma samples within freeze-thaw three cycles and at −80 °C for 15 days.

[5] = Stability in diluted SI at room temperature; details: analyzed at 0, 2, 4, 8, 12, 24, and 48 h
[6] = 1 h after administration (2 ml/kg of SI), preliminary test

## COc1cc(/C=C/CO)cc(OC)c1O[C@@H]1O[C@H](CO)[C@@H](O)[C@H](O)[C@H]1O [SYR, syringin]
[1]; [6]
  detection in rat plasma: can be detected
[1]; after administration of SI
  systematic exposure of SYR lower than that of HSYA: over 10 times
[1]; in vivo, 1 ml/kg
  AUC(0-inf): 116 ± 70.5 ng·h/mL
  AUC(0-t): 101 ± 57.4 ng·h/mL
  Cmax: 260 ± 59.4 ng/mL
  MRT inf: 22.8 ± 9.6 min
  MRT last: 16.2 ± 6 min
  Vd: 0.21 ± 0.07 L/kg
  clearance: 11.5 mL/min/kg
  half-life: 15 ± 5.4 min
[1]; in vivo, 2 ml/kg
  AUC(0-inf): 368 ± 78.7 ng·h/mL
  AUC(0-t): 363 ± 81.5 ng·h/mL
  Cmax: 465 ± 42.9 ng/mL
  MRT inf: 45 ± 8.4 min
  MRT last: 41.4 ± 4.2 min
  Vd: 0.31 ± 0.2 L/kg
  clearance: 5.67 mL/min/kg
  half-life: 36.6 ± 15 min
[1]; in vivo, 4 ml/kg
  AUC(0-inf): 592 ± 96.6 ng·h/mL
  AUC(0-t): 586 ± 94.4 ng·h/mL
  Cmax: 925 ± 38.5 ng/mL
  MRT inf: 42.6 ± 13.8 min
  MRT last: 40.2 ± 12.6 min
  Vd: 0.31 ± 0.11 L/kg
  clearance: 6.83 mL/min/kg
  half-life: 31.8 ± 13.8 min
[1]
  detected mean maximum plasma concentration: 0.93 μg/mL and 2.5 μM
[2]; 5 μM
  cell viability vs. model group: higher cell viability than the model group
[2]; 10 μM
  cell viability vs. model group: higher cell viability than the model group
[2]; 1, 5 and 10 μM
  anti-H2O2 injury effect (protection rate): concentration-dependent
[3]; fold change ≤1/1.5, p <0.05
  proteins downregulated vs. M group: 231 proteins
[3]; fold change ≥1.5, p <0.05
  proteins upregulated vs. M group: 131 proteins
[3]; vs. M group
  KEGG pathway regulation: downregulated the ribosome pathway and upregulated the lysosome pathway
  changed protein expression located at the cytoplasm: 42.54%
  changed protein expression located at the nucleus: 30.39%
[4]; spiked 40 ng/mL
  10h in auto-sampler vials RE: -12.50%
  6h at room temperature RE: -2.50%
  Freeze-thaw stability (three cycles) RE: 1.50%
  Long-term stability (-80℃,15 days) RE: -9.50%
[4]; spiked 400 ng/mL
  10h in auto-sampler vials RE: 1.61%
  6h at room temperature RE: 3.65%
  Freeze-thaw stability (three cycles) RE: 2.65%
  Long-term stability (-80℃,15 days) RE: 0.30%
[4]; spiked 10000 ng/mL
  10h in auto-sampler vials RE: 1.41%
  6h at room temperature RE: 1.55%
  Freeze-thaw stability (three cycles) RE: 2.30%
  Long-term stability (-80℃,15 days) RE: 0.98%
[5]
  Stability RSD: 2.76%

## O=Cc1ccc(O)cc1 [p-HBA, p-hydroxybenzaldehyde]
[1]; [6]
  detection in rat plasma: can be detected
[1]; behind 15 min after i.v. low dose administration (1 ml/kg of SI)
  detection in rat plasma: can’t be detected
[1]; plasma, 2 ml/kg
  AUC(0-inf): 23.4 ± 5.21 ng·h/mL
  AUC(0-t): 20.1 ± 4.4 ng·h/mL
  Cmax: 44.7 ± 5.13 ng/mL
  MRT inf: 40.2 ± 6.6 min
  MRT last: 25.8 ± 2.4 min
  Vd: 0.35 ± 0.04 L/kg
  clearance: 8.83 mL/min/kg
  half-life: 28.8 ± 6.6 min
[1]; plasma, 4 ml/kg
  AUC(0-inf): 44 ± 45.2 ng·h/mL
  AUC(0-t): 35.2 ± 31.1 ng·h/mL
  Cmax: 74.3 ± 2.52 ng/mL
  MRT inf: 31.8 ± 31.8 min
  MRT last: 19.2 ± 15 min
  Vd: 0.34 ± 0.09 L/kg
  clearance: 16.5 mL/min/kg
  half-life: 23.4 ± 21 min
[1]
  detected mean maximum plasma concentration: 0.074 μg/mL and 0.61 μM
[2]; 0.61 μM, preliminary test at maximum detected plasma concentration
  protection: absence of protection
[4]; spiked 40 ng/mL
  10h in auto-sampler vials RE: -2.50%
  Freeze-thaw stability (three cycles) RE: 1.00%
  Long-term stability (-80℃,15 days) RE: 14.50%
[4]; spiked 400 ng/mL
  10h in auto-sampler vials RE: 0.63%
  6h at room temperature RE: -3.70%
  Freeze-thaw stability (three cycles) RE: 4.05%
  Long-term stability (-80℃,15 days) RE: 0.45%
[4]; spiked 10000 ng/mL
  10h in auto-sampler vials RE: 4.23%
  6h at room temperature RE: -3.91%
  Freeze-thaw stability (three cycles) RE: -3.10%
  Long-term stability (-80℃,15 days) RE: 3.02%
[5]
  Stability RSD: 4.11%
